Measured values as given in PubChem BioAssay AID1918996 (Molecular Pharmacology Branch, DTP, NCI, 2023).
Where “and” joins values, the source holds several entries; their conditions need not be identical. Equal values may be shown once.

Tested on: 349418-098-R-PDC complex spheroid growth
Assay: Anticancer human tumor 349418-098-R-PDC patient-derived lung adenocarcinoma cell line growth inhibition [AhR]
Details: for viability, T/C: stronger effect = lower value; active = viability on the fitted dose curve at most 10% of control; inactive = the rest
Text: Multicellular complex tumor spheroid response to aryl hydrocarbon receptor antagonists in combination with a variety of drugs and investigational agents in selected tumor cell lines
The current study was undertaken to assess response to aryl hydrocarbon receptor antagonists in combination with standard-of-care drugs and investigational agents in solid tumor complex spheroid models. Complex spheroids include a stromal component modeled by human endothelial cells (HUVEC) and fibroblasts modeled by human mesenchymal stem cells (MSCs). The concentration ranges selected for each drug and investigational agent were based upon clinically achievable concentrations if the clinical Cmax of the agent was known.
Compounds. The drugs and investigational agents: BAY 2416964 (NSC825713), GNF351 (NSC835774), CH-223191 (NSC835775), CPI-455 (NSC825282), aza-TdCyd (NSC777586), decitabine (NSC127716), belinostat (NSC758774), entinostat (NSC756642), pevonedistat (NSC761192), tazemetostat (NSC777109), talazoparib (NSC765396), olaparib (NSC753686), selinexor (NSC780203), nedisertib (M3814, NSC802822), bortezomib (NSC756655), venetoclax (NSC766270), doxorubicin (NSC123127), elimusertib (BAY189344, NSC800525), ceralasertib (AZD6738, NSC777638), TAK-243 (NSC785004), alisertib (NSC759677), etoposide (NSC141540), topotecan (NSC609699), eribulin (NSC707389), gemcitabine (NSC613327), carboplatin (NSC241240), cisplatin (NSC119875), and SN-38 (NSC673596) were obtained from the National Cancer Institute (NCI) Developmental Therapeutics Program Chemical Repository (32). The FDA-approved anticancer drug set is available from the Developmental Therapeutics Program at https://dtp.cancer.gov/organization/dscb/obtaining/available plates.htm. […] The stock solutions were prepared in dimethyl sulfoxide (DMSO, Sigma-Aldrich, St. Louis, MO, cat. D2650), except for the platinum compounds which were prepared in saline (Quality Biological, Gaithersburg, MD, cat. 114-055-101), at 800-fold the tested concentration and stored at -70 degrees C prior to their use. All drugs and investigational agents were tested over a range starting from a high concentration at or near the clinical Cmax and decreasing in half-log increments. If the clinical Cmax for an agent had not been determined, the highest concentration tested was 10 microM (Table 1).
Cell Culture. All cells were maintained in an incubator at 37 degrees C and 5% CO2 with 95% humidity. The PDC lines were cultured according to standard operating procedures established by the NCI PDMR (https://pdmr.cancer.gov). Briefly, all PDCs were thawed and cultured in Matrigel-coated flasks prepared with a working solution of 1X Ham's F-12 nutrient mix, without supplementation (Invitrogen, Waltham, MA, cat. 11765054), 100 U/mL penicillin-streptomycin (Invitrogen, cat. 15140122), and 2.5% Matrigel (Corning Inc., Corning, NY, cat. 354248) for the first three passages. All PDCs were cultured in complete DMEM/F-12 media containing advanced DMEM/F-12 (Invitrogen, cat. 12634028), 4.9% defined fetal bovine serum, heat inactivated (HyClone Laboratories Inc., Logan, UT, cat. SH30070.03HI), 389 ng/mL hydrocortisone (Sigma-Aldrich, cat. H4001), 9.7 ng/mL human EGF recombinant protein (Invitrogen, cat. PHG0313), 23.4 microg/mL adenine (Sigma-Aldrich, cat. A2786), 97.3 U/mL penicillin-streptomycin (Invitrogen, cat. 15140122), 1.9 mM L-glutamine (Invitrogen, cat. 25030081), and 9.7 microM Y-27632 dihydrochloride (Tocris Bioscience, Bristol, United Kingdom, cat. 1254). The PDCs were cultured in complete DMEM/F12 media without 10 microM Y-27632 dihydrochloride for at least two passages prior to the screen. The established cell lines NCI-H1341 and […] were cultured in DMEM/F-12, HEPES (Invitrogen, cat. 11330032), 5% defined fetal bovine serum (HyClone Laboratories Inc., cat. SH30070.03), ITS premix universal culture supplement [insulin (5 microg/mL), transferrin (5 microg/mL), and selenious acid (5 ng/mL)] […]

[1] = curve of first compound, second compound 0.1 µM
[2] = curve of first compound, second compound 0.316 µM
[3] = curve of first compound, second compound 1 µM
[4] = curve of first compound, second compound 3.16 µM
[5] = curve of first compound, second compound 10 µM
[6] = second compound 0.1 µM, first compound 0.00949 µM
[7] = second compound 0.1 µM, first compound 0.03 µM
[8] = second compound 0.1 µM, first compound 0.0949 µM
[9] = second compound 0.1 µM, first compound 0.3 µM
[10] = second compound 0.316 µM, first compound 0.00949 µM
[11] = second compound 0.316 µM, first compound 0.03 µM
[12] = second compound 0.316 µM, first compound 0.0949 µM
[13] = second compound 0.316 µM, first compound 0.3 µM
[14] = second compound 1 µM, first compound 0.00949 µM
[15] = second compound 1 µM, first compound 0.03 µM
[16] = second compound 1 µM, first compound 0.0949 µM
[17] = second compound 1 µM, first compound 0.3 µM
[18] = second compound 3.16 µM, first compound 0.00949 µM
[19] = second compound 3.16 µM, first compound 0.03 µM
[20] = second compound 3.16 µM, first compound 0.0949 µM
[21] = second compound 3.16 µM, first compound 0.3 µM
[22] = second compound 10 µM, first compound 0.00949 µM
[23] = second compound 10 µM, first compound 0.03 µM
[24] = second compound 10 µM, first compound 0.0949 µM
[25] = second compound 10 µM, first compound 0.3 µM
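Also: spheroids exposed to agents for seven days before luminescence viability read.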
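For viability, T/C in this document: spheroids also contain HUVEC endothelial cells and human MSC stroma.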

O=C(C=Cn1cnc(-c2cc(C(F)(F)F)cc(C(F)(F)F)c2)n1)NNc1cnccn1 + Cc1ccccc1N=Nc1ccc(NC(=O)c2ccnn2C)c(C)c1
inactive: viability, T/C [6] 67.2% | viability, T/C [7] 35.2% | viability, T/C [8] 17.2% | viability, T/C [9] 11.2% | viability, T/C [10] 37.7% | viability, T/C [11] 25.4% | viability, T/C [12] 16.2% | viability, T/C [13] 12.2% | viability, T/C [14] 37.8% | viability, T/C [15] 29.9% | viability, T/C [16] 19.4% | viability, T/C [17] 11.9% | viability, T/C [18] 47.9% | viability, T/C [19] 33.7% | viability, T/C [20] 16.9% | viability, T/C [21] 11.4% | viability, T/C [22] 34.6% | viability, T/C [23] 22.8% | viability, T/C [24] 18.5% | viability, T/C [25] 13.8% | viability, T/C (second compound 10 µM, first compound 0.949 µM) 9.78%
< 9.49 nM: IC50 [2] | IC50 [3] | IC50 [4] | IC50 [5]
17.6 nM: IC50 [1]
active: viability, T/C (second compound 0.1 µM, first compound 0.949 µM) 9.1% | viability, T/C (second compound 0.1 µM, first compound 3 µM) 7.11% | viability, T/C (second compound 0.316 µM, first compound 0.949 µM) 10.2% | viability, T/C (second compound 0.316 µM, first compound 3 µM) 5.73% | viability, T/C (second compound 1 µM, first compound 0.949 µM) 8.42% | viability, T/C (second compound 1 µM, first compound 3 µM) 5.99% | viability, T/C (second compound 3.16 µM, first compound 0.949 µM) 8.44% | viability, T/C (second compound 3.16 µM, first compound 3 µM) 7.46% | viability, T/C (second compound 10 µM, first compound 3 µM) 7.95%

Cn1ncnc1C1c2n[nH]c(=O)c3cc(F)cc(c23)NC1c1ccc(F)cc1 (stereo unspecified)
> 100 nM: IC50 (curve of compound)
inactive: viability, T/C (compound 0.000316 µM) 100% and 74.1% and 70.2% | viability, T/C (compound 0.001 µM) 102% and 101% and 105% | viability, T/C (compound 0.00316 µM) 99.4% and 111% and 92.2% | viability, T/C (compound 0.01 µM) 93.1% and 74.3% and 87% | viability, T/C (compound 0.0316 µM) 87.6% and 97.2% and 84.1% | viability, T/C (compound 0.1 µM) 90.1% and 98.5% and 63.7%

Nc1ccn(C2OC(CO)C(O)C2(F)F)c(=O)n1 (stereo unspecified)
< 31.6 nM: IC50 (curve of compound)
5.57% and 9.29% and 10.5%: viability, T/C (compound 1 µM)
active: viability, T/C (compound 3.16 µM) 4.07% and 9.38% and 10.2% | viability, T/C (compound 10 µM) 3.24% and 7.8% and 8.55%
4.83% and 12.5% and 13.7%: viability, T/C (compound 0.0316 µM)
4.06% and 10.1% and 12.9%: viability, T/C (compound 0.316 µM)
4.18% and 11.3% and 11.8%: viability, T/C (compound 0.1 µM)

CCc1c2c(nc3ccc(O)cc13)-c1cc3c(c(=O)n1C2)COC(=O)[C@]3(O)CC + Cc1ccccc1N=Nc1ccc(NC(=O)c2ccnn2C)c(C)c1
< 0.949 nM: IC50 [2] | IC50 [3] | IC50 [4] | IC50 [5]
inactive: viability, T/C (second compound 0.1 µM, first compound 0.000949 µM) 75.5% | viability, T/C (second compound 0.1 µM, first compound 0.003 µM) 57.2% | viability, T/C [6] 22.3% | viability, T/C [7] 12.3% | viability, T/C (second compound 0.316 µM, first compound 0.000949 µM) 44.2% | viability, T/C (second compound 0.316 µM, first compound 0.003 µM) 32.8% | viability, T/C [10] 21% | viability, T/C [11] 9.78% | viability, T/C (second compound 1 µM, first compound 0.000949 µM) 29.9% | viability, T/C (second compound 1 µM, first compound 0.003 µM) 27.3% | viability, T/C [14] 19.7% | viability, T/C [15] 10.3% | viability, T/C (second compound 3.16 µM, first compound 0.000949 µM) 34.6% | viability, T/C (second compound 3.16 µM, first compound 0.003 µM) 33.5% | viability, T/C [18] 15.8% | viability, T/C [19] 10% | viability, T/C (second compound 10 µM, first compound 0.000949 µM) 37.7% | viability, T/C (second compound 10 µM, first compound 0.003 µM) 27.6% | viability, T/C [22] 15.2% | viability, T/C [23] 10.4%
3.8 nM: IC50 [1]
active: viability, T/C [8] 8.18% | viability, T/C [9] 7.18% | viability, T/C [12] 7.84% | viability, T/C [13] 5.78% | viability, T/C [16] 7.94% | viability, T/C [17] 6.46% | viability, T/C [20] 7.13% | viability, T/C [21] 6.47% | viability, T/C [24] 7.83% | viability, T/C [25] 6.4%

COc1cccc2c1C(=O)c1c(O)c3c(c(O)c1C2=O)CC(O)(C(=O)CO)CC3OC1CC(N)C(O)C(C)O1 (stereo unspecified)
7.69% and 19% and 13.3%: viability, T/C (compound 0.1 µM)
active: viability, T/C (compound 0.316 µM) 1.29% and 5.3% and 4.49% | viability, T/C (compound 1 µM) 0.27% and 0.62% and 0.79% | viability, T/C (compound 3.16 µM) 2.73% and 2.97% and 3.14% | viability, T/C (compound 10 µM) 4.37% and 6.2% and 5.59%
inactive: viability, T/C (compound 0.0316 µM) 12.1% and 24.6% and 20.9%
< 31.6 nM: IC50 (curve of compound)
